# Reference: the kinase profiling compilation of Christmann-Franck et al. (2016)
# Columns and labels:
# Experiment in all cases: KINOMEscan competition binding
# Conditions in all cases: compound 10.0 µM
# BRAF (human) = BRAF (human) (UniProt P15056)
# [1] = test system: BRAF (human), P15056 [V600E]
# NIM1 (human) = NIM1 (human) (UniProt Q8IY84)
# [2] = test system: PIK3CA (human), P42336 [I800L]
# DSTYK (human) = DSTYK (human) (UniProt Q6XUX3)
# [3] = test system: PIK3CA (human), P42336 [H1047L]
# Chain of PIK3CA (human), P42336 [H1047L] (P42336 whole entry H1047L, looked up): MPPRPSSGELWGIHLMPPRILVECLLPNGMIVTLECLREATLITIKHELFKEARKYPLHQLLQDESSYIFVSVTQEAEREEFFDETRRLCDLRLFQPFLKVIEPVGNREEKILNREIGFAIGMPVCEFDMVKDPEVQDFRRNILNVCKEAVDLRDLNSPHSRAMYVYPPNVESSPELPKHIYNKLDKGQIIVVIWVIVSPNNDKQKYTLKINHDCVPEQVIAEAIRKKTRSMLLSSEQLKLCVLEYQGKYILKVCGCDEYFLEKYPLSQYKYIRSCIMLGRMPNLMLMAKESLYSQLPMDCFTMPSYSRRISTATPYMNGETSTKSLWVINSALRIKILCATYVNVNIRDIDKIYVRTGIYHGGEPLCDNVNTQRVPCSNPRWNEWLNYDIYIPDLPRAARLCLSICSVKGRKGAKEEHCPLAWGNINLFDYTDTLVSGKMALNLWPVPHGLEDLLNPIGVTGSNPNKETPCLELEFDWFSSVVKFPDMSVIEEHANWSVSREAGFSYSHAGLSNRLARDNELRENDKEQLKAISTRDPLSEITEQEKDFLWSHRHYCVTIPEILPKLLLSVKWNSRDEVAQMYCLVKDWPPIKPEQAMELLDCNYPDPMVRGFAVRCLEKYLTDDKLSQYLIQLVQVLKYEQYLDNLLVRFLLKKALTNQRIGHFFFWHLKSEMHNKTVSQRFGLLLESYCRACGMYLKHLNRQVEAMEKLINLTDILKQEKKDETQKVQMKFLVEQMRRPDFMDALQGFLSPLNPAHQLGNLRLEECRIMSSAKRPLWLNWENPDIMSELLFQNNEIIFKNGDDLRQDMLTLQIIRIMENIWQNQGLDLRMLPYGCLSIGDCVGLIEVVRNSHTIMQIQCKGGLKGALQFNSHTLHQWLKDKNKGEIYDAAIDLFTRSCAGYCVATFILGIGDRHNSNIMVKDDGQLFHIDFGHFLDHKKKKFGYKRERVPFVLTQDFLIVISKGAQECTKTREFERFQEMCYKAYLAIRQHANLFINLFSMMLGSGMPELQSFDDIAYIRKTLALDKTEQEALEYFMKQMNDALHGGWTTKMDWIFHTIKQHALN
# MAP3K2 (human) = MAP3K2 (human) (UniProt Q9Y2U5)
# Chain of MAP3K2 (human) (Q9Y2U5 whole entry, looked up): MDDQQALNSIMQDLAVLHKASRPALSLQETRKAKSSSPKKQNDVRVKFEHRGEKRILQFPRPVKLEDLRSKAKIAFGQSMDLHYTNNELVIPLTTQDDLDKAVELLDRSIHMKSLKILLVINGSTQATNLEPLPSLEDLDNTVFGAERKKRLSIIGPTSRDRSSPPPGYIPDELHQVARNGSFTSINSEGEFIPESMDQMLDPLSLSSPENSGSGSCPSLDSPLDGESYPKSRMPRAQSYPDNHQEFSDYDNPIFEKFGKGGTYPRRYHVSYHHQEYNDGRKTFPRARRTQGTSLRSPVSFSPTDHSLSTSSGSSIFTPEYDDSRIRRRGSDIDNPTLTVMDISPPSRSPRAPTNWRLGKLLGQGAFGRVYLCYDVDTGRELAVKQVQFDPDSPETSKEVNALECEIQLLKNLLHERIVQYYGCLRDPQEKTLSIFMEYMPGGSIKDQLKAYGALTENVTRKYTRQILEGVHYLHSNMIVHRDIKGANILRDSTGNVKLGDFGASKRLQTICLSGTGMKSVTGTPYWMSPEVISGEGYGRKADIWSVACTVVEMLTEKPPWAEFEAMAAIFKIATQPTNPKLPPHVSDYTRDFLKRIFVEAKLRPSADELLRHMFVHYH
# CDKL1 (human) = CDKL1 (human) (UniProt Q00532)
# Chain of CDKL1 (human) (Q00532 whole entry, looked up): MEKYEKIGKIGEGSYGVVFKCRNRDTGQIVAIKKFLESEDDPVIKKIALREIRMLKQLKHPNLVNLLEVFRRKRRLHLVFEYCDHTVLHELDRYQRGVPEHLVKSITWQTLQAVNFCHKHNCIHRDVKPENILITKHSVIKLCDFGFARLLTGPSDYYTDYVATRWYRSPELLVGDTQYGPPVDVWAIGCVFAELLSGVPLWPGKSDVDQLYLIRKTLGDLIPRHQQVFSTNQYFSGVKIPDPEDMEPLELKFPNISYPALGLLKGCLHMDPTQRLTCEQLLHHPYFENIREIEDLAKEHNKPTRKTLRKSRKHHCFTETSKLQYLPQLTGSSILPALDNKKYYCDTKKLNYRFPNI
# [4] = test system: EGFR (human), P00533 [T790M]
# ROCK1 (human) = ROCK1 (human) (UniProt Q13464)
# Chain of ROCK1 (human) (Q13464 whole entry, looked up): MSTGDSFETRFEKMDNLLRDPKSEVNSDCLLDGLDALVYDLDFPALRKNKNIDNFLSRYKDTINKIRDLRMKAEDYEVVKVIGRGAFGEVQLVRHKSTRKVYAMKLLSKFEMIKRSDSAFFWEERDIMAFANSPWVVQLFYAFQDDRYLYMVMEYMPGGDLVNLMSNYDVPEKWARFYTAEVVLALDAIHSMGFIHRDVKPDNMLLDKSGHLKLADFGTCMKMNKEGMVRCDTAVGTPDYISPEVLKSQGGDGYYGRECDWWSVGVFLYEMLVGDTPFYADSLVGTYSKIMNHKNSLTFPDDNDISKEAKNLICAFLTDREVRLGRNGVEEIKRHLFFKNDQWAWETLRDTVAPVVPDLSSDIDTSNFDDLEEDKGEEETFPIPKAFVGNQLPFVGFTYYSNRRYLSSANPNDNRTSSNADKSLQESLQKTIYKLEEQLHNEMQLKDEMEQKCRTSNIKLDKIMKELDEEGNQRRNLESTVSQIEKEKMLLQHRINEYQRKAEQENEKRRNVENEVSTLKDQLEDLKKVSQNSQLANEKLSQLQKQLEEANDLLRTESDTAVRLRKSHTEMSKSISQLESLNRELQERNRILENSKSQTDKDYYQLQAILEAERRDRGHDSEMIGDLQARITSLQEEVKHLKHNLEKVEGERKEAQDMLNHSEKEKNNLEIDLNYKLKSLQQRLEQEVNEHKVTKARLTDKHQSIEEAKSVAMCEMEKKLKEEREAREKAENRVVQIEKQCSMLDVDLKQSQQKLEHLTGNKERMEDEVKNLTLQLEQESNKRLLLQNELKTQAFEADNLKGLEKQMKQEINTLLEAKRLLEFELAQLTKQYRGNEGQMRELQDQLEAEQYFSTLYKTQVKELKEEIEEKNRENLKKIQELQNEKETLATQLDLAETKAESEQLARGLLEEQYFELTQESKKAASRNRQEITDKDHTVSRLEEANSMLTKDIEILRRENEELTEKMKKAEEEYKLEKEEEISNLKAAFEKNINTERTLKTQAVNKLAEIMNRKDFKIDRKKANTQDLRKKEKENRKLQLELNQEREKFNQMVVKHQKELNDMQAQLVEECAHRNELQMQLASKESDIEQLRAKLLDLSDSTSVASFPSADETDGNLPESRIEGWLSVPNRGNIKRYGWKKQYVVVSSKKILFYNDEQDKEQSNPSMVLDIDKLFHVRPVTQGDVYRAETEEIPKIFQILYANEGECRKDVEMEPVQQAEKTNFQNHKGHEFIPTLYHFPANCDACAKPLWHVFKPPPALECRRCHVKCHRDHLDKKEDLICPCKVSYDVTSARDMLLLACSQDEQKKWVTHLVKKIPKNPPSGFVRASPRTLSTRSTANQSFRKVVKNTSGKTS
# MTOR (human) = MTOR (human) (UniProt P42345)
# DYRK1A (human) = DYRK1A (human) (UniProt Q13627)
# [5] = test system: KIT (human), P10721 [D816H]
# Chain of KIT (human), P10721 [D816H] (P10721 whole entry D816H, looked up): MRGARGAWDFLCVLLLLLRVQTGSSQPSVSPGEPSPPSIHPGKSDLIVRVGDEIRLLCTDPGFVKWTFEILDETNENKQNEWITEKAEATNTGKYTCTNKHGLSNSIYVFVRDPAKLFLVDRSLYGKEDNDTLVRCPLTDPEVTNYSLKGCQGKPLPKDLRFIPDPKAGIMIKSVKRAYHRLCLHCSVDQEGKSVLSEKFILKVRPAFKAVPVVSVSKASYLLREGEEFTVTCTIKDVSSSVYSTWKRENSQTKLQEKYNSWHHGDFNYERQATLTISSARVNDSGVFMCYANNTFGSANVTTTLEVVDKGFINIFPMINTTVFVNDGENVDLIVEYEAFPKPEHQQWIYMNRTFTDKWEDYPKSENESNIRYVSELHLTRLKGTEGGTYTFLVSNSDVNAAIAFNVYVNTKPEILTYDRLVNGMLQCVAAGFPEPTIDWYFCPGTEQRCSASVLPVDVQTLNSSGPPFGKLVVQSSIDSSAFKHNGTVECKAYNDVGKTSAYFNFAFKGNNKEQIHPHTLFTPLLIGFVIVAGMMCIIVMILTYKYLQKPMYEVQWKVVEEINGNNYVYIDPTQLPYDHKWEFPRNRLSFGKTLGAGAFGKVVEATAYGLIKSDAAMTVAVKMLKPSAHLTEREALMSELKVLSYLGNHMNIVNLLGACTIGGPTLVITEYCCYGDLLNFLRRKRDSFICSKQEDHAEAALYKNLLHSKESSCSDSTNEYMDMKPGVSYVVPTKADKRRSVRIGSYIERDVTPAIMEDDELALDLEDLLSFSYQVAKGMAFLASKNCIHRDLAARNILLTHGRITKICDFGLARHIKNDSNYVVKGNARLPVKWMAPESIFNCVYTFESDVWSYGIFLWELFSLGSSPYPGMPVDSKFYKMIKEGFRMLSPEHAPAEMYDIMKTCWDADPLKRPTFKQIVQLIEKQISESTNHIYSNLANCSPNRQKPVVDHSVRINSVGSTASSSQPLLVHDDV
# [6] = test system: PIK3CA (human), P42336 [E542K]
# Chain of PIK3CA (human), P42336 [E542K] (P42336 whole entry E542K, looked up): as the sequence (P42336 whole entry H1047L, looked up) above, with E542K, L1047H counted along it
# [7] = test system: ABL1 (human), P00519 [H396P]
# Chain of PIK3CA (human), P42336 [I800L] (P42336 whole entry I800L, looked up): as the sequence (P42336 whole entry H1047L, looked up) above, with I800L, L1047H counted along it
# Chain of NIM1 (human) (Q8IY84 whole entry, looked up): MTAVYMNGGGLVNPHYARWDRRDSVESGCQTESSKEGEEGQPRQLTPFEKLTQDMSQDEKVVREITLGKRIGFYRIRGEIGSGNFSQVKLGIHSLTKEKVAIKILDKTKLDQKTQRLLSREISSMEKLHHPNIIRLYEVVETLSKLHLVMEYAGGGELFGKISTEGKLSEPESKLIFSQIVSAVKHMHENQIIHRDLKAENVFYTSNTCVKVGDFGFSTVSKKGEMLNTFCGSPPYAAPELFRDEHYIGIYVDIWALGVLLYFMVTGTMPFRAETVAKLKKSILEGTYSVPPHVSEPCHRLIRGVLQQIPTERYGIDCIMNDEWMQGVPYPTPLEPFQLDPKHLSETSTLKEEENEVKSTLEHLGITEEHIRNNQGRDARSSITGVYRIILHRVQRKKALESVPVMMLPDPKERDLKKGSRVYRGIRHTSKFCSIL
Compound,"kinase still bound, per cent of control (BRAF (human))","kinase still bound, per cent of control [1]","kinase still bound, per cent of control (NIM1 (human))","kinase still bound, per cent of control [2]","kinase still bound, per cent of control (DSTYK (human))","kinase still bound, per cent of control [3]","kinase still bound, per cent of control (MAP3K2 (human))","kinase still bound, per cent of control (CDKL1 (human))","kinase still bound, per cent of control [4]","kinase still bound, per cent of control (ROCK1 (human))","kinase still bound, per cent of control (MTOR (human))","kinase still bound, per cent of control (DYRK1A (human))","kinase still bound, per cent of control [5]","kinase still bound, per cent of control [6]","kinase still bound, per cent of control [7]"
COc1cc(N2CCC(N3CCN(C)CC3)CC2)ccc1Nc1ncc(Cl)c(Nc2ccccc2S(=O)(=O)C(C)C)n1,40%,40%,,,,,,,,,,,,,
CCOc1cc(N2CCC(N3CCCCC3)CC2)ccc1Nc1nc(Nc2ccccc2S(=O)(=O)C(C)C)c2cn[nH]c2n1,,,100%,100%,2.8%,100%,28%,100%,0.25%,4.8%,86%,63%,73%,100%,
CCN1CCN(Cc2ccc(NC(=O)c3ccc(C)c(/C=C/c4cnc(Nc5cc(N6CCNCC6)nc(C)n5)cn4)c3)cc2C(F)(F)F)CC1,,,100%,94%,69%,97%,0.4%,61%,9.4%,100%,100%,44%,20%,94%,
CCN1CCN(Cc2ccc(NC(=O)c3ccc(C)c(Oc4ccnc5[nH]ccc45)c3)cc2C(F)(F)F)CC1,,,,,,,,,,,,,,,0.7%
